Assay results from patent US20090287077A1, “SYSTEM FOR DETECTING FUNCTION OF INTESTINAL BARRIER AND METHOD FOR USING THE SAME” (NATIONAL TAIWAN UNIVERSITY, priority 2008, published 2009).

Assay: Plasma concentration of Gd-containing contrast agent after injection into jejunal pouch (MRI of plasma samples, standard curve)
Assay type: in vivo, rat
Settings: for concentration of the Gd-containing contrast agent in the plasma: 0.5 ml (0.5 M) into jejunal pouch, mean±SEM
Method: Male Wistar rats weighed 250 g to 300 g were used in this experiment. The rats were randomly divided into 2 groups: sham-operation control group (CON) and ischemia/reperfusion group (I/R). Before the experiment, the rats were fasted overnight but allowed to drink water ad lib. The experiment was conducted in a sterile environment. The rats in the two groups were anethesized by intraperitoneal injection of ethyl urethane (1.2 g/kg), and then subjected to abdominal median incision. A jejunal pouch of 10 cm was made at 10 cm from the end of suspensory ligament of duodenum. A 1 ml syringe with a PE-10 catheter was intubated to one end of the jejunal pouch and 0.5 ml of Krebs buffer solution was slowly injected into the pouch from the syringe. The formula of Krebs buffer solution was as follows: 115 mmol/L of NaCl, 8 mmol/L of KCl, 1.25 mmol/L of Ca Cl2, 1.2 mmol/L of MgCl2, 2.0 mmol/L of KH2PO4 and 25 mmol/L of NaHCO3, with a pH of 7.33 to 7.37. […] The CON rats were subjected to abdominal median incision but not subjected to SMA closure. Thereafter, the tissue samples were taken from the rats of these 2 groups for histologic examination and analysis of bacterial translocation (as shown below). […]
In order to determine the rate of the Gd-containing contrast agent transferred from jejunal lumen into systemic circulation, a PE-50 catheter was intubated into left femoral artery before the surgical operation. […] The intensity of signal indication of each plasma sample and of each standard solution was calculated by using a determining device to circle a region of 4 mm^2 in MRI image and to calculate the intensity of signal indication in the region (mm^2). […] The concentration of the Gd-containing contrast agent in the plasma samples at each time point was calculated, using the standard curve. The flow-out rate of the Gd-containing contrast agent flowing from intestinal lumen to systemic circulation at different stages of reperfusion was calculated and expressed in mM/min.

concentration of the Gd-containing contrast agent in the plasma (CON rats (sham operation), 15 minutes): 6 ± 4 µM | concentration of the Gd-containing contrast agent in the plasma (I/R rats (20 min SMA closure), after 15 minutes of reperfusion): 220 ± 44 µM
Compound: CNC(=O)CN(CCN(CCN(CC(=O)[O-])CC(=O)NC)CC(=O)[O-])CC(=O)[O-].[Gd+3] [Gd-containing contrast agent]
flow-out rate of the Gd-containing contrast agent from intestinal lumen to systemic circulation, I/R rats versus CON rats (stage of 0-15 minutes of reperfusion): significantly higher than that in CON rats
